Data taken from patent US9944602B2, “Piperidinone herbicides” (E. I. DU PONT DE NEMOURS AND COMPANY, priority 2014, dated 2018).

Tests used:
Assay type in all cases: in vivo
[1] = system: wheat (winter wheat, Triticum aestivum); assay: Test C postemergence wheat; conditions: Table C, scale 0 to 100
Source text: (§1) Seeds of plant species selected from blackgrass (Alopecurus myosuroides), ryegrass, Italian (Italian ryegrass, Lolium multiflorum), wheat (winter wheat, Triticum aestivum), galium (catchweed bedstraw, Galium aparine), corn (Zea mays), crabgrass, large (large crabgrass, Digitaria sanguinalis), foxtail, giant (giant foxtail, Setaria faberii), johnsongrass (Sorghum halepense), lambsquarters (Chenopodium album), morningglory (Ipomoea coccinea), yellow (yellow nutsedge, Cyperus esculentus), pigweed (Amaranthus retroflexus), ragweed (common ragweed, Ambrosia elatior), soybean (Glycine max), barnyardgrass (Echinochloa crus-galli), oilseed rape (Brassica napus), waterhemp (common waterhemp, Amaranthus rudis), and velvetleaf (Abutilon theophrasti) were planted into a blend of loam soil and sand and treated preemergence with test chemicals formulated in a non-phytotoxic solvent mixture which included a surfactant. At the same time, plants selected from these crop and weed species and also chickweed (common chickweed, Stellaria media), kochia (Kochia scoparia), and oat, wild (wild oat, Avena fatua) were planted in pots containing Sunshine Redi-Earth® planting medium comprising spaghnum peat moss, vermiculite, starter nutrients and dolomitic limestone and treated with postemergence applications of test chemicals formulated in the same manner. Plants ranged in height from 2 to 18 cm (1- to 4-leaf stage) for postemergence treatments. Treated plants and controls were maintained in a greenhouse for 13 to 15 days, after which time all species were compared to controls and visually evaluated. Plant response ratings, summarized in Table C, are based on a scale of 0 to 100 where 0 is no effect and 100 is complete control. A dash (-) response means no test result.

[2] = system: corn (Zea mays); assay: Test C postemergence corn; conditions: Table C, scale 0 to 100
Source text: as §1

[3] = system: foxtail, giant (giant foxtail, Setaria faberii); assay: Test C postemergence foxtail, giant; conditions: Table C, scale 0 to 100
Source text: as §1

[4] = system: pigweed (Amaranthus retroflexus); assay: Test C postemergence pigweed; conditions: Table C, scale 0 to 100
Source text: as §1

[5] = system: barnyardgrass (Echinochloa crus-galli); assay: Test C postemergence barnyardgrass; conditions: Table C, scale 0 to 100
Source text: as §1

[6] = system: velvetleaf (Abutilon theophrasti); assay: Test C postemergence velvetleaf; conditions: Table C, scale 0 to 100
Source text: as §1

[7] = system: wheat (winter wheat, Triticum aestivum); assay: Test C preemergence wheat; conditions: Table C, scale 0 to 100
Source text: as §1

[8] = system: ragweed (common ragweed, Ambrosia elatior); assay: Test C preemergence ragweed; conditions: Table C, scale 0 to 100
Source text: as §1

[9] = system: velvetleaf (Abutilon theophrasti); assay: Test A preemergence velvetleaf; conditions: 0 to 100 scale, 0 no effect, 100 complete control
Source text: (§2) Seeds of plant species selected from barnyardgrass (Echinochloa crus-galli), kochia (Kochia scoparia), ragweed (common ragweed, Ambrosia elatior), ryegrass, Italian (Italian ryegrass, Lolium multiflorum), crabgrass, large (large crabgrass, Digitaria sanguinalis), foxtail, giant (giant foxtail, Setaria faberii), morningglory (Ipomoea spp.), pigweed (Amaranthus retroflexus), velvetleaf (Abutilon theophrasti), wheat (Triticum aestivum), and corn (Zea mays) were planted into a blend of loam soil and sand and treated preemergence with a directed soil spray using test chemicals formulated in a non-phytotoxic solvent mixture which included a surfactant.
(§3) At the same time, plants selected from these crop and weed species and also blackgrass (Alopecurus myosuroides), and galium (catchweed bedstraw, Galium aparine) were planted in pots containing the same blend of loam soil and sand and treated with postemergence applications of test chemicals formulated in the same manner. Plants ranged in height from 2 to 10 cm and were in the one- to two-leaf stage for the postemergence treatment. Treated plants and untreated controls were maintained in a greenhouse for approximately 10 d, after which time all treated plants were compared to untreated controls and visually evaluated for injury. Plant response ratings, summarized in Table A, are based on a 0 to 100 scale where 0 is no effect and 100 is complete control. A dash (-) response means no test result.

[10] = system: velvetleaf (Abutilon theophrasti); assay: Test A postemergence velvetleaf; conditions: 0 to 100 scale, 0 is no effect, 100 is complete control
Source text: as §2, §3

| SMILES | Plant response rating ([1]; 31 g ai/ha) | Plant response rating ([1]; 62 g ai/ha) | Plant response rating ([1]; 125 g ai/ha) | Plant response rating ([1]; 250 g ai/ha) | Plant response rating ([2]; 31 g ai/ha) | Plant response rating ([2]; 62 g ai/ha) | Plant response rating ([2]; 125 g ai/ha) | Plant response rating ([2]; 250 g ai/ha) | Plant response rating ([3]; 31 g ai/ha) | Plant response rating ([3]; 62 g ai/ha) | Plant response rating ([3]; 125 g ai/ha) | Plant response rating ([3]; 250 g ai/ha) | Plant response rating ([4]; 31 g ai/ha) | Plant response rating ([4]; 62 g ai/ha) | Plant response rating ([4]; 125 g ai/ha) | Plant response rating ([4]; 250 g ai/ha) | Plant response rating ([5]; 31 g ai/ha) | Plant response rating ([5]; 62 g ai/ha) | Plant response rating ([5]; 125 g ai/ha) | Plant response rating ([5]; 250 g ai/ha) | further results |
| --- | --- | --- | --- | --- | --- | --- | --- | --- | --- | --- | --- | --- | --- | --- | --- | --- | --- | --- | --- | --- | --- |
| O=C1NCCC(c2cccc(C(F)(F)F)c2)C1C(=O)Nc1ccccc1Cl (racemic) [Compound 17] | 0 | 0 | 0 | 0 | 0 | 0 | 0 | 0 | 0 | 5 | 5 | 5 | 0 | 0 | 0 | 5 | 0 | 0 | 5 | 50 | Plant response rating ([6]; 31 g ai/ha): 0; Plant response rating ([6]; 62 g ai/ha): 0; Plant response rating ([6]; 125 g ai/ha): 0; Plant response rating ([6]; 250 g ai/ha): 0 |
| O=C1NCCC(c2cccc(C(F)(F)F)c2)C1C(=O)Nc1ccc(F)c(F)c1F (racemic) [Compound 28] |  |  |  |  |  |  |  |  |  |  |  |  |  |  |  |  |  |  |  |  | Plant response rating ([7]; 31 g ai/ha): 0; Plant response rating ([7]; 62 g ai/ha): 0; Plant response rating ([7]; 125 g ai/ha): 0; Plant response rating ([7]; 250 g ai/ha): 10; Plant response rating ([8]; 31 g ai/ha): 0; Plant response rating ([8]; 62 g ai/ha): 0; Plant response rating ([8]; 125 g ai/ha): 0; Plant response rating ([8]; 250 g ai/ha): 0 |
| O=C1NCCC(c2cccc(C(F)(F)F)c2)C1C(=O)Nc1cccc(F)c1F (stereo not drawn) [Compound 9, N-(2,3-difluorophenyl)-2-oxo-4-[3-(trifluoromethyl)phenyl]-3-piperidinecarboxamide] | 0 | 0 | 0 | 0 | 0 | 0 | 0 | 0 | 0 | 5 | 35 | 85 | 0 | 0 | 5 | 5 | 0 | 5 | 60 | 85 | Velvetleaf plant response rating ([9]; 125 g ai/ha): 0; Velvetleaf plant response rating ([9]; 500 g ai/ha): 0; Plant response rating, Velvetleaf ([10]; 125 g ai/ha): 0; Plant response rating, Velvetleaf ([10]; 500 g ai/ha): 0; Plant response rating ([7]; 31 g ai/ha): 0; Plant response rating ([7]; 62 g ai/ha): 30; Plant response rating ([7]; 125 g ai/ha): 55; Plant response rating ([7]; 250 g ai/ha): 70; Plant response rating ([8]; 31 g ai/ha): 0; Plant response rating ([8]; 62 g ai/ha): 0; Plant response rating ([8]; 125 g ai/ha): 10; Plant response rating ([8]; 250 g ai/ha): 20; Plant response rating ([6]; 31 g ai/ha): 0; Plant response rating ([6]; 62 g ai/ha): 0; Plant response rating ([6]; 125 g ai/ha): 0; Plant response rating ([6]; 250 g ai/ha): 0 |
| O=C1NCCC(c2cccc(C(F)(F)F)c2)C1C(=O)Nc1ccccc1C(F)(F)F (stereo not drawn) [Compound 10, 2-oxo-N-[2-(trifluoromethyl)phenyl)-4-[3-(trifluoromethyl)phenyl]-3-piperidinecarboxamide] |  |  |  |  |  |  |  |  |  |  |  |  |  |  |  |  |  |  |  |  | Velvetleaf plant response rating ([9]; 125 g ai/ha): 0; Velvetleaf plant response rating ([9]; 500 g ai/ha): 0; Plant response rating, Velvetleaf ([10]; 125 g ai/ha): 0; Plant response rating, Velvetleaf ([10]; 500 g ai/ha): 0 |
